Results from US7138361B2, “Herbicidal heterocycles” (E. I. du Pont de Nemours and Company, priority 2000, dated 2006).

Key:
Assay type in all cases: in vivo
[1] = system: woolly cupgrass (Eriochloa villosa); test: Test C preemergence; conditions: for Plant response rating (0 to 100), Cupgrass, Woolly: visual evaluation after 12 to 14 days
Outline: (§1)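 Pre- and postemergence treatments used a non-phytotoxic solvent/surfactant formulation; post-treated plants measured 2 to 18 cm. Greenhouse hold 12–14 d; % control estimated visually relative to controls.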

[2] = system: giant foxtail (Setaria faberii); test: Test C preemergence; conditions: for Plant response rating (0 to 100), Foxtail, Giant: visual evaluation after 12 to 14 days
Outline: as §1

[3] = system: soybean (Glycine max); test: Test C preemergence
Outline: as §1

[4] = system: cocklebur (Xanthium strumarium); test: Test C preemergence; conditions: for Plant response rating (0 to 100), Cocklebur: visual evaluation after 12 to 14 days
Outline: as §1

[5] = system: johnsongrass (Sorghum halepense); test: Test C preemergence; conditions: for Plant response rating (0 to 100), Johnsongrass: visual evaluation after 12 to 14 days
Outline: as §1

[6] = system: morningglory (Ipomoea hederacea); test: Test C preemergence
Outline: as §1

[7] = system: lambsquarters (Chenopodium album); test: Test C preemergence
Outline: as §1

[8] = system: velvetleaf (Abutilon theophrasti); test: Test C preemergence
Outline: as §1

[9] = system: corn (Zea mays); test: Test C preemergence; conditions: for Plant response rating (0 to 100), Corn: visual evaluation after 12 to 14 days
Outline: as §1

[10] = system: pigweed (Amaranthus retroflexus); test: Test C preemergence
Outline: as §1

[11] = system: yellow nutsedge (Cyperus esculentus); test: Test C preemergence
Outline: as §1

[12] = system: kochia (Kochia scoparia); test: Test C preemergence; conditions: for Plant response rating (0 to 100), Kochia: visual evaluation after 12 to 14 days
Outline: as §1

[13] = system: goosegrass (Eleusine indica); test: Test C preemergence; conditions: for Plant response rating (0 to 100), Goosegrass: visual evaluation after 12 to 14 days
Outline: as §1

[14] = system: crabgrass (Digitaria sanguinalis); test: Test C preemergence; conditions: for Plant response rating (0 to 100), Crabgrass: visual evaluation after 12 to 14 days
Outline: as §1

[15] = system: common ragweed (Ambrosia elatior); test: Test C preemergence
Outline: as §1

[16] = system: bermudagrass (Cynodon dactylon); test: Test C preemergence; conditions: for Plant response rating (0 to 100 where 0 is no effect and 100 is complete control), Bermudagrass: visual evaluation after 12 to 14 days
Outline: as §1

[17] = system: Nightshade; test: Test C preemergence
[18] = system: Sunflower; test: Test C preemergence; conditions: Rate 125 g/ha; scale 0 to 100, 0 no effect, 100 complete control
[19] = system: Surinam grass (Brachiaria decumbens); test: Test C preemergence; conditions: for Plant response rating (0 to 100), Surinam grass: visual evaluation after 12 to 14 days
Outline: as §1

[20] = system: Sunflower; test: Test C preemergence; conditions: Rate 500 g/ha, visual evaluation after 12 to 14 days
[21] = system: rice (Oryza saliva); test: Test C flooded paddy test; conditions: for Rice plant response rating: Flooded Paddy, scale 0 to 100, 0 no effect, 100 complete control; for Plant response rating, Rice: flooded paddy test, scale 0 to 100 (0 no effect, 100 complete control)
Outline: (§2)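 Visual ratings (0 = no effect, 100 = complete control) were made 12–14 days after treatment, relative to greenhouse controls. Plants in the flooded paddy test were rice, smallflower flatsedge, duck salad and barnyardgrass, treated at the 2-leaf stage.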

[22] = system: barnyardgrass (Echinochloa crus-galli); test: Test C flooded paddy test; conditions: for Barnyardgrass plant response rating: Flooded Paddy, scale 0 to 100, 0 no effect, 100 complete control
Outline: as §2

[23] = Rate 125 g/ha, scale 0 to 100, 0 no effect, 100 complete control
[24] = preemergence, Rate 62 g/ha, scale 0 to 100
[25] = preemergence, Rate 500 g/ha, visual evaluation after 12 to 14 days
[26] = preemergence, Rate 250 g/ha, scale 0 to 100, 0 no effect, 100 complete control

**Q.** Which results are given for `CCC(CC)c1ccn(C2CCN(c3cccc(OC(C)C)c3)C2=O)n1` (centres unmarked) [Compound 84]?
**A.** Plant response rating, Cupgrass, Woolly [1, 23]: 90; Plant response rating, Cupgrass, Woolly [1, 24]: 60; Plant response rating (0 to 100), Cupgrass, Woolly ([1]; preemergence, Rate 250 g/ha): 90; Plant response rating (0 to 100), Cupgrass, Woolly ([1]; preemergence, Rate 500 g/ha): 100; Plant response rating, Foxtail, Giant [2, 23]: 80; Plant response rating, Foxtail, Giant [2, 24]: 10; Plant response rating (0 to 100), Foxtail, Giant ([2]; preemergence, Rate 250 g/ha): 100; Plant response rating (0 to 100), Foxtail, Giant ([2]; preemergence, Rate 500 g/ha): 100; Plant response rating, Soybean [3, 23]: 0; Plant response rating, Soybean [3, 24]: 0; Plant response rating (0 to 100), Soybean [3, 25]: 0; Plant response rating, Soybean [3, 26]: 0; Plant response rating, Cocklebur [4, 23]: 0; Plant response rating, Cocklebur [4, 24]: 0; Plant response rating (0 to 100), Cocklebur ([4]; preemergence, Rate 250 g/ha): 0; Plant response rating (0 to 100), Cocklebur ([4]; preemergence, Rate 500 g/ha): 0; Plant response rating, Johnsongrass [5, 23]: 0; Plant response rating, Johnsongrass [5, 24]: 0; Plant response rating (0 to 100), Johnsongrass ([5]; preemergence, Rate 250 g/ha): 0; Plant response rating (0 to 100), Johnsongrass ([5]; preemergence, Rate 500 g/ha): 0; Plant response rating, Morningglory [6, 23]: 20; Plant response rating, Morningglory [6, 24]: 0; Plant response rating (0 to 100), Morningglory [6, 25]: 20; Plant response rating, Morningglory [6, 26]: 20; Plant response rating, Lambsquarters [7, 23]: 100; Plant response rating, Lambsquarters [7, 24]: 100; Plant response rating (0 to 100), Lambsquarters [7, 25]: 100; Plant response rating, Lambsquarters [7, 26]: 100; Plant response rating, Velvetleaf [8, 23]: 0; Plant response rating, Velvetleaf [8, 24]: 0; Plant response rating (0 to 100), Velvetleaf [8, 25]: 0; Plant response rating, Velvetleaf [8, 26]: 0; Plant response rating, Corn [9, 23]: 0; Plant response rating, Corn [9, 24]: 0; Plant response rating (0 to 100), Corn ([9]; preemergence, Rate 250 g/ha): 0; Plant response rating (0 to 100), Corn ([9]; preemergence, Rate 500 g/ha): 0; Plant response rating, Pigweed [10, 23]: 0; Plant response rating, Pigweed [10, 24]: 90; Plant response rating (0 to 100), Pigweed [10, 25]: 90; Plant response rating, Pigweed [10, 26]: 100; Plant response rating, Nutsedge [11, 23]: 0; Plant response rating, Nutsedge [11, 24]: 0; Plant response rating (0 to 100), Nutsedge [11, 25]: 0; Plant response rating, Nutsedge [11, 26]: 0; Plant response rating, Kochia [12, 23]: 100; Plant response rating, Kochia [12, 24]: 80; Plant response rating (0 to 100), Kochia ([12]; preemergence, Rate 250 g/ha): 100; Plant response rating (0 to 100), Kochia ([12]; preemergence, Rate 500 g/ha): 100; Plant response rating, Goosegrass [13, 23]: 80; Plant response rating, Goosegrass [13, 24]: 20; Plant response rating (0 to 100), Goosegrass ([13]; preemergence, Rate 250 g/ha): 90; Plant response rating (0 to 100), Goosegrass ([13]; preemergence, Rate 500 g/ha): 100; Plant response rating, Crabgrass [14, 23]: 100; Plant response rating, Crabgrass [14, 24]: 90; Plant response rating (0 to 100), Crabgrass ([14]; preemergence, Rate 250 g/ha): 100; Plant response rating (0 to 100), Crabgrass ([14]; preemergence, Rate 500 g/ha): 100; Plant response rating, Ragweed, Common [15, 23]: 0; Plant response rating, Ragweed, Common [15, 24]: 0; Plant response rating (0 to 100), Ragweed, Common [15, 25]: 0; Plant response rating, Ragweed, Common [15, 26]: 0; Plant response rating, Bermudagrass [16, 23]: 100; Plant response rating, Bermudagrass [16, 24]: 100; Plant response rating (0 to 100 where 0 is no effect and 100 is complete control), Bermudagrass ([16]; preemergence, Rate 250 g/ha): 100; Plant response rating (0 to 100 where 0 is no effect and 100 is complete control), Bermudagrass ([16]; preemergence, Rate 500 g/ha): 100; Plant response rating, Nightshade ([17]; Rate 62 g/ha, scale 0 to 100): 30; Plant response rating, Nightshade [17, 23]: 50; Plant response rating, Nightshade ([17]; Rate 250 g/ha, scale 0 to 100, 0 no effect, 100 complete control): 100; Plant response rating, Sunflower [18]: 10; Plant response rating, Surinam grass [19, 23]: 0; Plant response rating, Surinam grass [19, 24]: 0; Plant response rating (0 to 100), Surinam grass ([19]; preemergence, Rate 250 g/ha): 30; Plant response rating (0 to 100), Surinam grass ([19]; preemergence, Rate 500 g/ha): 80; Plant response rating (0 to 100), Sunflower [20]: 30; Rice plant response rating ([21]; Rate 250 g/ha): 30; Rice plant response rating ([21]; Rate 500 g/ha): 90; Plant response rating, Rice ([21]; Rate 62 g/ha): 0; Plant response rating, Rice ([21]; Rate 125 g/ha): 0; Barnyardgrass plant response rating ([22]; Rate 250 g/ha): 100; Barnyardgrass plant response rating ([22]; Rate 500 g/ha): 100; Plant response rating, Barnyardgrass ([22]; flooded paddy test, Rate 62 g/ha, scale 0 to 100 (0 no effect, 100 complete control)): 80
